Results from ChEMBL document CHEMBL5316334, “Structure-Based Design of Novel Alkynyl Thio-Benzoxazepinone Receptor-Interacting Protein Kinase-1 Inhibitors: Extending the Chemical Space from the Allosteric to ATP Binding Pockets” (J Med Chem, 2023).
The source made the active and inactive calls. The rule behind the calls is not given here.

Tests used:
HT-29 [1] = assay: Cytotoxicity against human HT-29 cells assessed as reduction in cell viability measured for 16 to 24 hrs by Cell-titer-glo assay; assay type: functional; settings: time 16-24 hrs
Mus musculus [2] = assay: Anti-necroptosis activity against TNFalpha-induced C57BL/6 mouse systemic inflammatory response syndrome model assessed as protection of body temperature at 5 to 20 mg/kg, IG pretreated with compound followed by TNFalpha-stimulation and measured after 2 to 3 hrs by thermometer analysis; assay type: functional, organism-based; settings: dose 5-20 mg/kg, time 2-3 hrs
Mus musculus [3] = assay: Anti-necroptic activity against mTNFalpha induced C57BL/6 mouse systemic inflammatory response syndrome model assessed as increase in survival rate 20 mg/kg, IG pretreated with compound for 1 hr followed by mTNFalpha injection and measured after 60 mins; assay type: functional; settings: time 2 hrs
Mus musculus [4] = assay: Anti-necroptic activity against mTNFalpha induced C57BL/6 mouse systemic inflammatory response syndrome model assessed as increase in survival rate 5 mg/kg, IG pretreated with compound for 1 hr followed by mTNFalpha injection and measured after 60 mins; assay type: functional; settings: time 2 hrs
[5] = target: Receptor-interacting serine/threonine-protein kinase 3 (Homo sapiens) (UniProt Q9Y572); assay: Inhibition of RIPK3 phosphorylation […] (TNFalpha, Smac mimetic and z-VAD-FMK) induced-human HT-29 cells assessed as decrease in phosphorylated RIPK3 level at 12 nM pretreated with compound followed by TSZ-induction and measured after 6 hrs by immunoblotting analysis; assay type: cell-based
Chain of Receptor-interacting serine/threonine-protein kinase 3 (Homo sapiens) (Q9Y572 whole entry, looked up, the tested form may be a part): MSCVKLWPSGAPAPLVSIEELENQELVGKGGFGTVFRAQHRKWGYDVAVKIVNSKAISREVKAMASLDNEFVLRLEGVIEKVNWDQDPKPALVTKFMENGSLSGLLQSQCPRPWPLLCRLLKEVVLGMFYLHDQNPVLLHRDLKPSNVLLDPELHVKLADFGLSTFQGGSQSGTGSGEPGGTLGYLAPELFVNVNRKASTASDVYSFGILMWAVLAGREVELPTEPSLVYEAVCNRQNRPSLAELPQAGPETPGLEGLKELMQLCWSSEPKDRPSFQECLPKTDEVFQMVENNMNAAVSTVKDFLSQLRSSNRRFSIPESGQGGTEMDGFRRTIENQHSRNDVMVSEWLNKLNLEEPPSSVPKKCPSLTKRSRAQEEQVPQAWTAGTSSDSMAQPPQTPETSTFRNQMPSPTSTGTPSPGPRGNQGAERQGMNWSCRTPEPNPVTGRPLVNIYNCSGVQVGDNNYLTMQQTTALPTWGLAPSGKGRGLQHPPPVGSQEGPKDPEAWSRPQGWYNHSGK

[6] = target: T1, Receptor-interacting serine/threonine-protein kinase 1 (Homo sapiens) (UniProt Q13546); assay: Inhibition of RIPK1 phosphorylation in TSZ (TNFalpha, Smac mimetic and z-VAD-FMK) induced-human HT-29 cells assessed as decrease in phosphorylated RIPK1 level at 12 nM pretreated with compound followed by TSZ-induction by immunoblotting analysis; assay type: cell-based; settings: time 6.0 hrs, TDE = time-dependent effect
T1 sequence (whole entry): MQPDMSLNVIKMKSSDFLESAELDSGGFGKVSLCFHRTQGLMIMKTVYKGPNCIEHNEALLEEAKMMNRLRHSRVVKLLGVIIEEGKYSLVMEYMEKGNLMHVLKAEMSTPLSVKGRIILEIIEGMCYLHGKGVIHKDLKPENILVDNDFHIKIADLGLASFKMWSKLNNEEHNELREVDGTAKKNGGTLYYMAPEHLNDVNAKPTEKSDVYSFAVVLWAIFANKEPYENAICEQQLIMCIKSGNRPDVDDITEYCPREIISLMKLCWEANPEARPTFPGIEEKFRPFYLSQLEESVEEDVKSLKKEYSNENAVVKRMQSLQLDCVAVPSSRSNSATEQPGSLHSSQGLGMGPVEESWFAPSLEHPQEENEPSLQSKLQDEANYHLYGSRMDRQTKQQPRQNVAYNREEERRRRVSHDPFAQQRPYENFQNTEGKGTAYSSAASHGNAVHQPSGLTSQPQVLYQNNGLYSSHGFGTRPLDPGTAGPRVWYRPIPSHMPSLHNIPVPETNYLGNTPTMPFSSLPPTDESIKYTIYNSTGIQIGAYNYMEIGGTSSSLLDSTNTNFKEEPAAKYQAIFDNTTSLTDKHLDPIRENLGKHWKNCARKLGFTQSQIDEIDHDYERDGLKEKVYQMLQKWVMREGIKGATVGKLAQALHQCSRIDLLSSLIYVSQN

[7] = target: T2, Mixed lineage kinase domain-like protein (Homo sapiens) (UniProt Q8NB16); assay: Inhibition of MLKL phosphorylation […] (TNFalpha, Smac mimetic and z-VAD-FMK) induced-human HT-29 cells assessed as decrease in phosphorylated MLKL level at 12 nM pretreated with compound followed by TSZ-induction and measured after 6 hrs by immunoblotting analysis; assay type: cell-based
T2 sequence (whole entry): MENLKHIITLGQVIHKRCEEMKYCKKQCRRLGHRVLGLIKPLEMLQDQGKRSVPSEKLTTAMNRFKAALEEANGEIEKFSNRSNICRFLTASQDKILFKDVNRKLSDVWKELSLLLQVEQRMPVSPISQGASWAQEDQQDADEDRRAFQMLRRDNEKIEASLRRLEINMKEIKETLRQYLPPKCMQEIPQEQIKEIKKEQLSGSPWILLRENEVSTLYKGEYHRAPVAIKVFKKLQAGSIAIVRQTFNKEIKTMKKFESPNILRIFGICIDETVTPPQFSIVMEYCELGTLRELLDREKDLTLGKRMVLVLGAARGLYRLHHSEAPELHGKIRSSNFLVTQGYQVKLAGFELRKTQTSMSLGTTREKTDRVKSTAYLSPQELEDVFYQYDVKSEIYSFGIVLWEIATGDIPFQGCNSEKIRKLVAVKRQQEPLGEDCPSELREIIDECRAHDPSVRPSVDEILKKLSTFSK

HT-29 [8] = assay: Cytotoxicity against human HT-29 cells assessed as reduction in cell viability at 100 uM measured for 16 to 24 hrs by Cell-titer-glo assay; assay type: functional, cell-based; settings: time 16-24 hrs
[9] = target: T2, Mixed lineage kinase domain-like protein (Homo sapiens); assay: Inhibition of MLKL phosphorylation in TSZ (TNFalpha, Smac mimetic and z-VAD-FMK) induced-human HT-29 cells assessed as decrease in phosphorylated MLKL level at 12 nM pretreated with compound followed by TSZ-induction by immunoblotting analysis; assay type: cell-based; settings: time 2-6 hrs, TDE = time-dependent effect
Mus musculus [10] = assay: Anti-necroptic activity against mTNFalpha induced C57BL/6 mouse systemic inflammatory response syndrome model assessed as increase in survival rate 10 mg/kg, IG pretreated with compound for 1 hr followed by mTNFalpha injection and measured after 15 mins; assay type: functional; settings: time 75 min, 1.25 h
Mus musculus [11] = assay: Anti-necroptic activity against mTNFalpha induced C57BL/6 mouse systemic inflammatory response syndrome model assessed as increase in survival rate 5 mg/kg, IG pretreated with compound for 1 hr followed by mTNFalpha injection and measured after 15 mins; assay type: functional; settings: time 75 min, 1.25 h
[12] = target: T3, Receptor-interacting serine/threonine-protein kinase 1 (Homo sapiens, UniProt Q13546); assay: Binding affinity to recombinant RIPK1 (unknown origin) assessed as dissociation constant by kinomescan assay
T3 sequence (Q13546 whole entry): T1 sequence (whole entry)

Mus musculus [13] = assay: Anti-necroptic activity against TNFalpha-induced C57BL/6 mouse serum assessed as reduction in IL-1beta level at 5 mg/kg, IG pretreated with compound followed by TNFalpha-stimulation for 4 hrs; assay type: functional, organism-based
[14] = target: T1, Receptor-interacting serine/threonine-protein kinase 1 (Homo sapiens); assay: Inhibition of RIPK1 phosphorylation in TSZ (TNFalpha, Smac mimetic and z-VAD-FMK) induced-human HT-29 cells assessed as decrease in phosphorylated RIPK1 level pretreated with compound followed by TSZ-induction and measured after 6 hrs by immunoblotting analysis; assay type: cell-based; settings: dose 1.5-12 nM
[15] = target: T1, Receptor-interacting serine/threonine-protein kinase 1 (Homo sapiens); assay: Inhibition of RIPK1 phosphorylation in TSZ (TNFalpha, Smac mimetic and z-VAD-FMK) induced-human HT-29 cells assessed as decrease in phosphorylated RIPK1 level at 12 nM pretreated with compound followed by TSZ-induction and measured after 6 hrs by immunoblotting analysis; assay type: cell-based
HT-29 [16] = assay: Anti-necroptic activity in human HT-29 cells assessed as inhibition of TNFalpha and cycloheximide-induced necroptosis pretreated with compound followed by TNFalpha and cycloheximide-induction and measured after 24 hrs by Cell-titer-glo assay; assay type: functional, cell-based
HT-29 [17] = assay: Anti-necroptosis activity against human HT-29 cells assessed as inhibition of TSZ-induced necroptosis preincubated for 30 mins followed by compound addition and measured for 16 hrs by Cell-titer-glo assay; assay type: functional, cell-based
[18] = target: Receptor-interacting serine/threonine-protein kinase 3 (Homo sapiens) (UniProt Q9Y572); assay: Inhibition of RIPK3 phosphorylation in TSZ (TNFalpha, Smac mimetic and z-VAD-FMK) induced-human HT-29 cells assessed as decrease in phosphorylated RIPK3 level pretreated with compound followed by TSZ-induction and measured after 6 hrs by immunoblotting analysis; assay type: cell-based; settings: dose 1.5-12 nM
[19] = target: T2, Mixed lineage kinase domain-like protein (Homo sapiens); assay: Inhibition of MLKL phosphorylation in TSZ (TNFalpha, Smac mimetic and z-VAD-FMK) induced-human HT-29 cells assessed as decrease in phosphorylated MLKL level pretreated with compound followed by TSZ-induction and measured after 6 hrs by immunoblotting analysis; assay type: cell-based; settings: dose 1.5-12 nM
Mus musculus [20] = assay: Anti-necroptic activity against TNFalpha-induced C57BL/6 mouse serum assessed as reduction in IL-6 level at 5 mg/kg, IG pretreated with compound followed by TNFalpha-stimulation for 4 hrs; assay type: functional, organism-based
HT-29 [21] = assay: Inhibition of RIPK1-RIPK3-MLKL pathway in TSZ induced human HT-29 cells assessed as reduction in necrosome formation at 12 nM measured after 6 hrs by Western blot analysis; assay type: cell-based
U-937 = assay: Anti-necroptic activity against human U-937 cells assessed as inhibition of TSZ-induced necroptosis at 100 nM pretreated with compound followed by TSZ induction and measured for 12 hrs by Cell-titer-glo assay; assay type: functional, cell-based
Mus musculus [22] = assay: Anti-necroptic activity against mTNFalpha induced C57BL/6 mouse systemic inflammatory response syndrome model assessed as increase in survival rate 15 mg/kg, IG pretreated with compound for 1 hr followed by mTNFalpha injection and measured after 15 mins; assay type: functional; settings: time 75 min, 1.25 h
L929 = assay: Anti-necroptic activity against mouse L929 cells assessed as inhibition of TNFalpha/z-VAD-FMK-induced necroptosis pretreated with compound followed by TNFalpha/z-VAD-FMK-induction and measured after 24 hrs by Cell-titer-glo assay; assay type: functional, cell-based; settings: dose 0.02-10 µM
[23] = target: Receptor-interacting serine/threonine-protein kinase 3 (Homo sapiens) (UniProt Q9Y572); assay: Inhibition of RIPK3 phosphorylation in TSZ (TNFalpha, Smac mimetic and z-VAD-FMK) induced -human HT-29 cells assessed as decrease in phosphorylated RIPK3 level at 12 nM pretreated with compound followed by TSZ-induction by immunoblotting analysis; assay type: cell-based; settings: time 2-6 hrs, TDE = time-dependent effect
Mus musculus [24] = assay: Anti-necroptic activity against TNFalpha-induced C57BL/6 mouse systemic inflammatory response syndrome model assessed as protection of body temperature at 20 mg/kg, IG pretreated with compound followed by TNFalpha-stimulation and measured after 2 to 3 hrs by thermometer analysis; assay type: functional, organism-based; settings: time 2-3 hrs
Mus musculus [25] = assay: Anti-necroptic activity against TNFalpha-induced C57BL/6 mouse serum assessed as reduction in IL-1beta level at 20 mg/kg, IG pretreated with compound followed by TNFalpha-stimulation for 4 hrs; assay type: functional, organism-based
Mus musculus [26] = assay: Anti-necroptic activity against TNFalpha-induced C57BL/6 mouse serum assessed as reduction in IL-6 level at 20 mg/kg, IG pretreated with compound followed by TNFalpha-stimulation for 4 hrs; assay type: functional, organism-based
HT-29 [27] = assay: Anti-necroptosis activity against human HT-29 cells assessed as inhibition of TSZ-induced necroptosis pretreated with compound followed by TSZ induction and measured for 12 hrs by Cell-titer-glo assay; assay type: functional, cell-based; settings: dose 0.63-100 nM
Mus musculus [28] = assay: Anti-necroptic activity against mTNFalpha induced C57BL/6 mouse systemic inflammatory response syndrome model assessed as increase in survival rate 20 mg/kg, IG pretreated with compound for 1 hr followed by mTNFalpha injection and measured after 15 mins; assay type: functional; settings: time 75 min, 1.25 h

Structure (SMILES) | CC50 (HT-29 [1]) | Activity (Mus musculus [2]) | inhibition [5] | inhibition [6] | inhibition [7] | inhibition [9] | Activity (Mus musculus [10]) | Activity (Mus musculus [11]) | Kd [12] | inhibition [14] | inhibition [15] | Activity (HT-29 [16]) | EC50 (HT-29 [17]) | inhibition [18] | inhibition [19] | inhibition (HT-29 [21]) | Activity (U-937) | Activity (L929) | inhibition [23] | Activity (Mus musculus [24]) | further results
CN1C(=O)[C@@H](NC(=O)c2n[nH]c(Cc3ccccc3)n2)COc2ccccc21 [GSK2982772] | > 100000 nM | Active |  |  |  |  |  |  |  |  |  |  |  |  |  |  |  |  |  |  | Activity (Mus musculus [3]): 92%; Activity (Mus musculus [4]): 50%
CN1C(=S)[C@@H](NC(=O)c2n[nH]c(Cc3ccccc3)n2)COc2ccc(C#Cc3cccc(C#N)c3)cc21 | > 100000 nM |  | Active | Tde | Active | Tde | 83% | 58% | 70 nM | Dose-Dependent Effect | Active | inactive | 3.2 nM | Dose-Dependent Effect | Dose-Dependent Effect | Active | Active | Dose-Dependent Effect | Tde | Active | Activity (HT-29 [8]): inactive; Activity (Mus musculus [13]): Active; Activity (Mus musculus [20]): Active; Activity (Mus musculus [22]): 100%
C#Cc1ccc2c(c1)N(C)C(=S)[C@@H](NC(=O)c1n[nH]c(Cc3ccccc3)n1)CO2 | > 100000 nM | Active | Active | Tde | Active | Tde | 83% | 66% | 9.7 nM | Dose-Dependent Effect | Active | inactive | 3.7 nM | Dose-Dependent Effect | Dose-Dependent Effect | Active | Active | Dose-Dependent Effect | Tde | Active | Activity (Mus musculus [25]): Active; Activity (Mus musculus [26]): Active; Activity (HT-29 [27]): Dose-Dependent Effect; Activity (Mus musculus [28]): 100%
